Assay results from patent US20240075041A1, “TREATMENT OF EOSINOPHILIC DISORDERS WITH AVAPRITINIB” (Blueprint Medicines Corporation, priority 2019, published 2024).
“Also recorded” adds a separate entry of the source.

Columns and labels:
KIT D816V = KIT D816V (Homo sapiens, UniProt P10721, D816V); assay: Activity against KIT D816V in vitro; type: biochemical
[1] = Phase 1 dose escalation in advanced systemic mastocytosis (NCT02561988); type: in vivo; settings: patients with advanced systemic mastocytosis, Phase 1 study, oral
Description: (§1) This is a Phase 1, open-label, study designed to evaluate the safety, tolerability, PK, PD, and preliminary antineoplastic activity of Compound (I), administered orally, in adult patients with advanced systemic mastocytosis (AdvSM) and relapsed or refractory myeloid malignancies.
(§2) The study consists of 2 parts: dose-escalation (Part 1) and expansion (Part 2). Approximately 25 patients were in Part 1 and approximately 55 patients were in Part 2.
Patients with AdvSM or a relapsed or refractory myeloid malignancy were enrolled in the dose escalation part of the study. A 3+3 dose-escalation design using cohorts of 3 patients were employed.
The first cohort of patients received Compound (I) at a starting dose of 30 mg once daily (QD). Dose escalation proceeded at increments up to 100% until ≥1 patient treated at a given dose level has a ≥Grade 2 non-hematologic AE or a Grade 4 hematologic AE and the AE (non-hematologic or hematologic) was not clearly attributable to a cause other than Compound (I) or the dose exceeds the highest dose determined to be safe in the ongoing Compound (I) first-in-human (FIH) study in GIST, BLU-285-1101.
Three patients were enrolled initially in each cohort and an additional 3 patients (for a total of 6) were enrolled when the cohort requires expansion due to dose-limiting toxicity (DLT). […]

[2] = Toxicology and safety pharmacology studies; type: in vivo; settings: at active doses
eosinophils = assay: Measurement of absolute eosinophils in Phase 1 clinical trial patients (routine blood test at C1D15); type: in vivo, human; settings: adult patients with AdvSM, oral Compound (I) 30 mg to 400 mg QD, C1D15 (after 2 weeks), baseline absolute eosinophil count >0.5, FIGS. 1-4
Description: The dose range of Compound (I) is between 30 mg and 400 mg. The patients with baseline absolute eosinophil count of >0.5.
The patients with baseline absolute eosinophil count of >0.5.
The dose range of Compound (I) is between 200 mg and 300 mg. The patients with baseline absolute eosinophil count of >0.5.
as §1, §2
A treatment cycle is 28 days in duration. Patients presented to the study center on C1D1 for the first dose of study drug and serial PK sampling, PD sample collection, vital sign measurement, electrocardiogram (ECG) monitoring, patient general impression of symptom severity (PGIS) and European Organization for Research and Treatment of Cancer Core Quality of Life Questionnaire (EORTC QLQ-C30), safety monitoring and adverse event (AE) recording.
Eosinophils in patients were measured at C1D15 (cycle 1, day 15) via a routine blood test, see, e.g., LaGow B et al., eds. PDR Lab Advisor. A Comprehensive Point-of-Care Guide for Over 600 Lab Tests. 1st ed. […]

[3] = test system: tyrosine kinase inhibitor (TKI)-resistant mastocytoma model; assay: TKI-resistant mastocytoma model in vivo

KIT D816V, sequence (P10721 26-976 D816V): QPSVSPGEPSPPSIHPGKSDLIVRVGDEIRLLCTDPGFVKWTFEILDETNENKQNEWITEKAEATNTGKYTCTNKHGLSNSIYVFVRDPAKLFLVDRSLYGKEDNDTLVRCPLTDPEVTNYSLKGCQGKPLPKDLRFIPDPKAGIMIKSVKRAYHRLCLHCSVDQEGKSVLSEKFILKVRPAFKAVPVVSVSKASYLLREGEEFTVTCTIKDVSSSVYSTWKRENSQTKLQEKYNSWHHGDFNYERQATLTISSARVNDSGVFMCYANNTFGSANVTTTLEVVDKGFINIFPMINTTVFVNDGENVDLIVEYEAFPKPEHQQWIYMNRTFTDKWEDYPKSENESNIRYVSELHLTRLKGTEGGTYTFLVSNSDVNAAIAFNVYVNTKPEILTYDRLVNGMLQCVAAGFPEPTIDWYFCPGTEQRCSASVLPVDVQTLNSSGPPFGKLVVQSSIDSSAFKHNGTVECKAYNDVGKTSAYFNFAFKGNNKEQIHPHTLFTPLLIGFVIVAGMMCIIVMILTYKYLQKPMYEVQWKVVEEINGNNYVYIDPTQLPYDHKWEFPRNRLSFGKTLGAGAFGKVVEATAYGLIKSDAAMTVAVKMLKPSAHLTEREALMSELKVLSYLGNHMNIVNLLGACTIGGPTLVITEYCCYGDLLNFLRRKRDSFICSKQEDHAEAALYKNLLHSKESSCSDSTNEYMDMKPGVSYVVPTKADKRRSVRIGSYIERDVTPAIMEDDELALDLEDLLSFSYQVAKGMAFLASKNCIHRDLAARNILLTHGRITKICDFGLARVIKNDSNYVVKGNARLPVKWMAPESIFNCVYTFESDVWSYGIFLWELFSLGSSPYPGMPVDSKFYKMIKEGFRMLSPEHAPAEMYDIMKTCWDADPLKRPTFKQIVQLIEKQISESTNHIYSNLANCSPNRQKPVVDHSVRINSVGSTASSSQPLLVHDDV

Cn1cc(-c2cc3c(N4CCN(c5ncc([C@@](C)(N)c6ccc(F)cc6)cn5)CC4)ncnn3c2)cn1 [Compound (I), (S)-1-(4-fluorophenyl)-1-(2-(4-(6-(1-methyl-1H-pyrazol-4-yl)pyrrolo[2,1-f][1,2,4]triazin-4-yl)piperazin-yl)pyrimidin-5-yl)ethan-1-amine]
activity against KIT D816V in vitro (KIT D816V): potent and selective activity | recommended Phase 2 dose (RP2D) [1]: 300 mg once a day (QD) | tolerability [2]: tolerability at active doses | absolute eosinophil changes from baseline levels (eosinophils): significantly decreases number of absolute eosinophils; also recorded: effectively reduces eosinophil levels | growth inhibition in TKI-resistant mastocytoma model [3]: robust growth inhibition
